In US12559529B2, “NPY2 receptor agonists” (Boehringer Ingelheim International GmbH, priority 2019, dated 2026):
*1 amine or outer side, *2 acyl side, *3 side chain or, on linkers, in order; H or OH if unused. Where a SMILES comes first, the peptide text is derived from it. Side-chain parts run from the residue outwards. The star is where a group is joined. C18 diacid = O=C(O)CCCCCCCCCCCCCCCCC(=O)*; γGlu = O=C(O)[C@H](CCC(=O)[*:2])N[*:1]; Isovaleryl = CC(C)CC(=O)*; AEEA = NCCOCCOCC(=O)O

target: T1, Human Neuropeptide Y2 Receptor (Homo sapiens, UniProt P49146); assay: Radioligand binding competition assay (RLB); settings: Table 3; human 125I-PYY (1-36) 0.02 nM, Y2 receptor membranes; read-out: Ki
T1 construct: purchased CHEMICON HTS066M
T1 sequence (P49146 1-381): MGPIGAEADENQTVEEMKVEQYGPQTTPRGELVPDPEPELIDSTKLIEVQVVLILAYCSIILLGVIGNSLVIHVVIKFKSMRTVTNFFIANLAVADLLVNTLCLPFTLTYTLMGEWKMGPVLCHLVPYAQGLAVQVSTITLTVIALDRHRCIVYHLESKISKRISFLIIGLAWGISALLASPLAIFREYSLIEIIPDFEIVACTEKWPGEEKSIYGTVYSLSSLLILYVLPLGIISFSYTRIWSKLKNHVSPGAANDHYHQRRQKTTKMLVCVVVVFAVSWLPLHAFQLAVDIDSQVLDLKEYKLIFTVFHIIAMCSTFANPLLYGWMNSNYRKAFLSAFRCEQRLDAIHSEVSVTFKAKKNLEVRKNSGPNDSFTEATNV
In short: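 Competition binding at commercial human NPY Y2 membrane preparations, 0.5 μg protein per well, 2 h incubation at room temperature. Bound and free ligand were separated on GF/C filters and counted; IC50 was fitted by nonlinear regression.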

Row | Ki [nM] | Structure (SMILES)
1 | 38.9 | CC(C)CC(=O)N[C@@H](C)C(=O)N1CCC[C@H]1C(=O)N[C@@H](CCC(=O)O)C(=O)N[C@@H](CCCCNC(=O)COCCOCCNC(=O)COCCOCCNC(=O)CC[C@H](NC(=O)CCCCCCCCCCCCCCCCC(=O)O)C(=O)O)C(=O)N1CCC[C@H]1C(=O)N[C@@H](CCC(=O)O)C(=O)N[C@@H](CCC(=O)O)C(=O)N[C@@H](CC(=O)O)C(=O)N[C@H](C(=O)N[C@@H](CCC(=O)O)C(=O)N1CCC[C@H]1C(=O)N[C@@H](CCC(=O)O)C(=O)N[C@@H](CCC(=O)O)C(=O)N[C@@H](CC(C)C)C(=O)N[C@@H](CCC(N)=O)C(=O)N[C@@H](CCCNC(=N)N)C(=O)N[C@@H](Cc1ccc(O)cc1)C(=O)N[C@@H](Cc1ccc(O)cc1)C(=O)N[C@H](C(=O)N[C@@H](CO)C(=O)N[C@@H](CC(C)C)C(=O)N[C@@H](CCCNC(=N)N)C(=O)N[C@@H](Cc1c[nH]cn1)C(=O)N[C@@H](Cc1ccc(O)cc1)C(=O)N[C@@H](Cc1ccc(O)cc1)C(=O)N[C@@H](CC(N)=O)C(=O)N[C@@H](Cc1c[nH]c2ccccc12)C(=O)N[C@@H](CC(C)C)C(=O)N[C@H](C(=O)N[C@@H](CCCNC(=N)N)C(=O)N[C@@H](CCC(N)=O)C(=O)N[C@@H](CCCNC(=N)N)C(=O)N[C@@H](Cc1ccc(O)cc1)C(N)=O)[C@@H](C)O)C(C)C)[C@@H](C)O [Compound 48, N{alpha-4}-(3-methylbutanoyl)-N{epsilon-7}-[2-(2-{2-[2-(2-{2-[(4S)-4-carboxy-4-(17-carboxyheptadecanamido)butanamido]ethoxy}ethoxy)acetamido]ethoxy}ethoxy)acetamido]-[4A,7K,9E,12T,13E,18Q,22V,28Y,30W,31L]hPYY (4-36)]
2 | 39.4 | CC(C)CC(=O)N[C@@H](C)C(=O)N1CCC[C@H]1C(=O)N[C@@H](CCC(=O)O)C(=O)N[C@@H](CCCCNC(=O)COCCOCCNC(=O)COCCOCCNC(=O)CC[C@H](NC(=O)CCCCCCCCCCCCCCCCC(=O)O)C(=O)O)C(=O)N[C@@H](C)C(=O)N[C@@H](CCC(=O)O)C(=O)N[C@@H](CCC(=O)O)C(=O)N[C@@H](CCC(=O)O)C(=O)N[C@@H](C)C(=O)N[C@@H](CO)C(=O)N1CCC[C@H]1C(=O)N[C@@H](CCC(=O)O)C(=O)N[C@@H](CCC(=O)O)C(=O)N[C@@H](CC(C)C)C(=O)N[C@@H](CCC(N)=O)C(=O)N[C@@H](CCCNC(=N)N)C(=O)N[C@@H](Cc1ccc(O)cc1)C(=O)N[C@@H](Cc1ccc(O)cc1)C(=O)N[C@H](C(=O)N[C@@H](CO)C(=O)N[C@@H](CC(C)C)C(=O)N[C@@H](CCCNC(=N)N)C(=O)N[C@@H](Cc1c[nH]cn1)C(=O)N[C@@H](Cc1ccc(O)cc1)C(=O)N[C@@H](Cc1ccc(O)cc1)C(=O)N[C@@H](CC(N)=O)C(=O)N[C@@H](Cc1c[nH]c2ccccc12)C(=O)N[C@@H](CC(C)C)C(=O)N[C@H](C(=O)N[C@@H](CCCNC(=N)N)C(=O)N[C@@H](CCC(N)=O)C(=O)N[C@@H](CCCNC(=N)N)C(=O)N[C@@H](Cc1ccc(O)cc1)C(N)=O)[C@@H](C)O)C(C)C [Compound 51, N{alpha-4}-(3-methylbutanoyl)-N{epsilon-7}-[2-(2-{2-[2-(2-{2-[(4S)-4-carboxy-4-(17-carboxyheptadecanamido)butanamido]ethoxy}ethoxy)acetamido]ethoxy}ethoxy)acetamido]-[4A,7K,8A,9E,11E,18Q,22V,28Y,30W,31L]hPYY (4-36)] (Isovaleryl-APEK([AEEA-AEEA-γGlu-C18 diacid])AEEEASPEELQRYYVSLRHYYNWLTRQRY-NH2)
3 | 8.53 | CC(C)CC(=O)N[C@@H](C)C(=O)N1CCC[C@H]1C(=O)N[C@@H](CCC(=O)O)C(=O)N[C@@H](CCCCNC(=O)COCCOCCNC(=O)COCCOCCNC(=O)CC[C@H](NC(=O)CCCCCCCCCCCCCCCCC(=O)O)C(=O)O)C(=O)N[C@@H](C)C(=O)N[C@@H](CCC(=O)O)C(=O)N[C@@H](CCC(=O)O)C(=O)N[C@@H](CC(=O)O)C(=O)N[C@@H](C)C(=O)N[C@@H](CO)C(=O)N[C@@H](CCC(=O)O)C(=O)N[C@@H](CCC(=O)O)C(=O)N[C@@H](CCC(=O)O)C(=O)N[C@@H](CC(C)C)C(=O)N[C@@H](CCC(N)=O)C(=O)N[C@@H](CCCNC(=N)N)C(=O)N[C@@H](Cc1ccc(O)cc1)C(=O)N[C@@H](Cc1ccc(O)cc1)C(=O)N[C@H](C(=O)N[C@@H](CO)C(=O)N[C@@H](CC(C)C)C(=O)N[C@@H](CCCNC(=N)N)C(=O)N[C@@H](Cc1c[nH]cn1)C(=O)N[C@@H](Cc1ccc(O)cc1)C(=O)N[C@@H](Cc1ccc(O)cc1)C(=O)N[C@@H](CC(N)=O)C(=O)N[C@@H](Cc1c[nH]c2ccccc12)C(=O)N[C@@H](CC(C)C)C(=O)N[C@H](C(=O)N[C@@H](CCCNC(=N)N)C(=O)N[C@@H](CCC(N)=O)C(=O)N[C@@H](CCCNC(=N)N)C(=O)N[C@@H](Cc1ccc(O)cc1)C(N)=O)[C@@H](C)O)C(C)C [Compound 52, N{alpha-4}-(3-methylbutanoyl)-N{epsilon-7}-[2-(2-{2-[2-(2-{2-[(4S)-4-carboxy-4-(17-carboxyheptadecanamido)butanamido]ethoxy}ethoxy)acetamido]ethoxy}ethoxy)acetamido]-[4A,7K,8A,9E,14E,18Q,22V,28Y,30W,31L]hPYY (4-36)]
4 | 3.35 | CC(C)CC(=O)N[C@@H](C)C(=O)N1CCC[C@H]1C(=O)N[C@@H](CCC(=O)O)C(=O)N[C@@H](CCCCNC(=O)COCCOCCNC(=O)COCCOCCNC(=O)CC[C@H](NC(=O)CCCCCCCCCCCCCCCCC(=O)O)C(=O)O)C(=O)N1CCC[C@H]1C(=O)N[C@@H](CCC(=O)O)C(=O)N[C@@H](CCC(=O)O)C(=O)N[C@@H](CC(=O)O)C(=O)N[C@@H](C)C(=O)N[C@@H](CO)C(=O)N1CCC[C@H]1C(=O)N[C@@H](CCC(=O)O)C(=O)N[C@@H](CCC(=O)O)C(=O)N[C@@H](C)C(=O)N[C@@H](CCC(N)=O)C(=O)N[C@@H](CCCNC(=N)N)C(=O)N[C@@H](Cc1ccc(O)cc1)C(=O)N[C@@H](Cc1ccc(O)cc1)C(=O)N[C@H](C(=O)N[C@@H](CO)C(=O)N[C@@H](CC(C)C)C(=O)N[C@@H](CCCNC(=N)N)C(=O)N[C@@H](Cc1c[nH]cn1)C(=O)N[C@@H](Cc1ccc(O)cc1)C(=O)N[C@@H](Cc1ccc(O)cc1)C(=O)N[C@@H](CC(N)=O)C(=O)N[C@@H](Cc1c[nH]c2ccccc12)C(=O)N[C@@H](CC(C)C)C(=O)N[C@H](C(=O)N[C@@H](CCCNC(=N)N)C(=O)N[C@@H](CCC(N)=O)C(=O)N[C@@H](CCCNC(=N)N)C(=O)N[C@@H](Cc1ccc(O)cc1)C(N)=O)[C@@H](C)O)C(C)C [Compound 55, N{alpha-4}-(3-methylbutanoyl)-N{epsilon-7}-[2-(2-{2-[2-(2-{2-[(4S)-4-carboxy-4-(17-carboxyheptadecanamido)butanamido]ethoxy}ethoxy)acetamido]ethoxy}ethoxy)acetamido]-[4A,7K,9E,17A,18Q,22V,28Y,30W,31L]hPYY (4-36)]
5 | 5.95 | CC(C)CC(=O)N[C@@H](C)C(=O)N1CCC[C@H]1C(=O)N[C@@H](CCC(=O)O)C(=O)N[C@@H](CCCCNC(=O)COCCOCCNC(=O)COCCOCCNC(=O)CC[C@H](NC(=O)CCCCCCCCCCCCCCCCC(=O)O)C(=O)O)C(=O)N1CCC[C@H]1C(=O)N[C@@H](CCC(=O)O)C(=O)N[C@@H](CCC(=O)O)C(=O)N[C@@H](C)C(=O)N[C@@H](C)C(=O)N[C@@H](CO)C(=O)N1CCC[C@H]1C(=O)N[C@@H](CCC(=O)O)C(=O)N[C@@H](CCC(=O)O)C(=O)N[C@@H](CC(C)C)C(=O)N[C@@H](CCC(=O)O)C(=O)N[C@@H](CCC(N)=O)C(=O)N[C@@H](Cc1ccc(O)cc1)C(=O)N[C@@H](Cc1ccc(O)cc1)C(=O)N[C@H](C(=O)N[C@@H](CO)C(=O)N[C@@H](CC(C)C)C(=O)N[C@@H](CCCNC(=N)N)C(=O)N[C@@H](Cc1c[nH]cn1)C(=O)N[C@@H](Cc1ccc(O)cc1)C(=O)N[C@@H](Cc1ccc(O)cc1)C(=O)N[C@@H](CC(N)=O)C(=O)N[C@@H](Cc1c[nH]c2ccccc12)C(=O)N[C@@H](CC(C)C)C(=O)N[C@H](C(=O)N[C@@H](CCCNC(=N)N)C(=O)N[C@@H](CCC(N)=O)C(=O)N[C@@H](CCCNC(=N)N)C(=O)N[C@@H](Cc1ccc(O)cc1)C(N)=O)[C@@H](C)O)C(C)C [Compound 60, N{alpha-4}-(3-methylbutanoyl)-N{epsilon-7}-[2-(2-{2-[2-(2-{2-[(4S)-4-carboxy-4-(17-carboxyheptadecanamido)butanamido]ethoxy}ethoxy)acetamido]ethoxy}ethoxy)acetamido]-[4A,7K,9E,11A,18E,19Q,22V,28Y,30W,31L]hPYY (4-36)] (Isovaleryl-APEK([AEEA-AEEA-γGlu-C18 diacid])PEEAASPEELEQYYVSLRHYYNWLTRQRY-NH2)
